Results published in US20040105778A1, “Gamma irradiation of solid nanoparticulate active agents” (Elan Pharma International Limited, priority 2002, published 2004).

Experiment: Gamma irradiation dosing studies, naproxen assay and degradants
Type: physicochemical

COc1ccc2cc([C@H](C)C(=O)O)ccc2c1 [Naproxen (API), naproxen]
Naproxen Assay Average (Control (0 kGy)): 99.07 % w/w
Naproxen Assay Relative to Control (Control (0 kGy)): 100.00
Naproxen Assay Average (gamma dose 5 kGy): 96.38 % w/w
Naproxen Assay Relative to Control (gamma dose 5 kGy): 97.28
Naproxen Assay Average (gamma dose 10 kGy): 100.82 % w/w
Naproxen Assay Relative to Control (gamma dose 10 kGy): 101.77
Naproxen Assay Average (gamma dose 15 kGy): 100.44 % w/w
Naproxen Assay Average (gamma dose 25 kGy): 100.08 % w/w
Naproxen Assay Average (gamma dose 30 kGy): 100.47 % w/w
Naproxen Assay Average (gamma dose 40 kGy): 99.14 % w/w
Naproxen Assay Relative to Control (gamma dose 40 kGy): 100.07
Naproxen Assay Average (gamma dose 50 kGy): 99.49 % w/w
Naproxen Assay Relative to Control (gamma dose 50 kGy): 100.42
